Converted amounts (≈) assume the structure as drawn. Where two headings read alike, the source gives them in different places.
Tests used:
E. coli ATCC 25922 = test: In vitro antimicrobial activity, MIC by broth micro-dilution; assay type: cell-based
Method: (§1) In vitro antimicrobial activity of each compound was determined by measuring minimal inhibitor concentrations (MICs) using the broth micro-dilution technique as approved by the Clinical and Laboratory Standards Institute (CLSI). The microbiological panel examined contains a number of bacterial species including E. coli MG1655, P. aeruginosa, S. aureus, and S. epidermidis. In addition, the panel includes previously described pseudo-isogenic strains of these four species (P. A. Smith et al. Chem Biol 2010, 1223-1231), in which a specific proline residue in SPase (called LepB in Gram-negative organisms an SpsB in Gram-positive organisms) has been mutated to a different amino acid. The resulting strains have increased susceptibility to the arylomycin class of antibiotics. Analysis of the strains lacking this proline residue will increases the dynamic range of the assay, and comparison of the sensitivities of the isogenic pairs provides ongoing confirmation that the activity gained through derivatization is specific to the inhibition of SPase. Briefly, bacterial streaks were grown on Mueller Hinton Agar II (Difco™) with or without 5% lysed horse blood for a period of 24 hours at either 35° C. or 28° C. Bacterial colonies were suspended in cation adjusted Mueller Hinton broth and diluted to a final concentration of 1*10^7 colony forming units/ml. Two-fold serial dilutions of each compound were arrayed into 96-well plates (100 μl final volume per well) and 5 ul of the bacterial suspension will be added. […] MICs were periodically checked plating serial dilutions of MIC wells and quantitatively determining viable colonies.

[1] = tested on: S. aureus NCTC-8325 SpsB(P295); test: as above; assay type: cell-based; conditions: for MIC: Staphylococcus aureus, NCTC8325, read-out: MIC class, S. aureus NCTC-8325 SpsB(P295)
Method: as §1

S. epidermidis RP62A = test: as above; assay type: cell-based; conditions: for MIC: Staphylococcus epidermidis, RP62A, read-out: MIC class, S. epidermidis RP62A
Method: as §1

S. pneumoniae D39 = test: as above; assay type: cell-based; conditions: for MIC: Streptococcus pneumoniae, D39, read-out: MIC class, S. pneumoniae D39
Method: as §1

[2] = tested on: E. col ATCC 25922 LepB(P84L); test: as above; assay type: cell-based, E. coli; conditions: for MIC: Escherichia coli, ATCC25922, read-out: MIC class, E. col ATCC 25922 LepB(P84L)
Method: as §1

S. aurues NCTC-8325 = test: as above; assay type: cell-based, S. aureus; conditions: for MIC: Staphylococcus aureus, NCTC8325, read-out: MIC class, S. aurues NCTC-8325
Method: as §1

E. coli SPase = target: T1, E. coli SPase (Escherichia coli, UniProt P00803); test: Enzymatic fluorogenic substrate cleavage assay for IC50; assay type: biochemical
T1 construct: Full length His-tagged E. coli SPase proteins were expressed in E. coli BL21(DE3); His-tag; made in house; host or cells: E. coli BL21(DE3)
Method: (§2) Full length His-tagged E. coli SPase proteins were expressed in E. coli BL21(DE3) containing the plasmid pET23-lepB, P. A. Smith et al. Chem Biol 2010, 1223-1231. Briefly, saturated overnight cultures grown in 20 ml of Luria-Bertani medium supplemented with ampicillin were subcultures into 1.5 L of Luria-Bertani, and shaken at 37° C. until an optical density at 600 nm of 0.4-0.5 was achieved. Protein expression was induced with Isopropyl β-D-1-thiogalactopyranoside (ITPG) at a final concentration of […], and purified using nickel affinity chromatography. Full length His-tagged S. aureus SPase protein was expressed similarly from E. coli BL21(DE3) containing the plasmid pCDF1-SaSpsB or pCDF1-SaSpsB(P29S) and purified similarly to the E. coli protein with the following exceptions. SPase protein was solubilized using 300 mM NaCl, 20 mM Tris pH 8.06, 5 mM Imidazole, 10% glycerol, 1% Triton X-100, prior to purification in Ni-NTA Superflow resin and resin bound protein was washed in a similar buffer containing 1% Elugent in place of Triton X-100 prior to protein eluted in wash buffer supplemented with 300 mM imidazole. Protein purify was judged to exceed 95% by visual inspection of SDS-PAGE followed by Comassie staining. All protein concentrations were determined by BCA assay.
(§3) In addition to the equilibrium binding assays, compound activity is also characterized by measuring inhibition of E. coli and S. aureus substrate cleavage reactions using fluorogenic peptides developed at RQx Pharmaceuticals. Briefly, two fluorogenic peptide substrates (decanoyl-LSSPA Y^NO2 A ? ADK^abzPD (SEQ ID NO: 1) and decanyol-LTPTAY^NO2 A ? ASKK^abzDD (SEQ ID NO: 2)) have been synthesized, where abz is the fluorescence donor 2-aminobenzamide, YNO2 is the fluorescence acceptor 3-nitrotyrosine, and the cleavage site is indicated with an arrow. These substrates are processed with a second order rate constant (Kcat/KM) of 10^5 M^−1s^−1 for E. coli and S. aureus SPase enzymes, and cleavage results in a greater than 10-fold increase in fluorescence signal (excitation at 314 nm, emission at 416 nm) as measured using a SpectraMax M2 fluorescence microplate reader. Two-folder serial dilutions of compound are prepared in cleavage reaction buffer consisting of: 50 mM Tris-HCl pH 8.0, 100 mM NaCl, 10% glycerol, 1 mM EDTA, detergent (1% NP-40 or 0.1% Elugent™ for E. coli LepB or S. aureus SpsB respectively) and either 2.5 nM of E. coli SPase enzyme or 10 nM of S. aureus SPase enzyme. 40 μl aliquots of the compound dilution series in the protein/buffer solution is transferred to black 384-well polypropylene plates, and 10 μl of fluorogenic peptide at a concentration of 100 μM is added to initiate the reaction. The increase in fluorescence, corresponding to substrate cleavage, is monitored continuously at room temperature for 30 minutes and initial reaction rates are calculated based in the linear increase in fluorescence from the initial 30 minutes of the reaction. Reaction rates are plotted as a function of compound concentration, and IC50 values are determined nonlinear regression analysis (SoftMax® Pro v5.4) of the sigmoidal dose-response curve.

S. aureus SPase = target: T2, S. aureus SPase (Staphylococcus aureus, UniProt P0A070); test: as above; assay type: biochemical
T2 construct: Full length His-tagged S. aureus SPase protein was expressed similarly; His-tag; made in house; host or cells: E. coli BL21(DE3)
Method: as §2, §3

[3] = Escherichia coli, ATCC25922; read-out: MIC class, E. coli ATCC 25922
[4] = fluorogenic peptide cleavage, read-out: IC50 class E. coli SPase
[5] = fluorogenic peptide cleavage, read-out: IC50 class S. aureus SPase

| SMILES | MIC (E. coli ATCC 25922; Escherichia coli, ATCC25922, read-out: MIC class, E. coli ATCC 25922) [µg/mL] | MIC [1] [µg/mL] | MIC (S. epidermidis RP62A) [µg/mL] | MIC (S. pneumoniae D39) [µg/mL] | MIC [2] [µg/mL] | MIC (S. aurues NCTC-8325) [µg/mL] | IC50 (E. coli SPase) [nM] | IC50 (S. aureus SPase) [nM] | MIC (E. coli ATCC 25922; [3]) [µg/mL] | MIC class, E. coli ATCC 25922 (E. coli ATCC 25922; E. coli ATCC 25922) | MIC class, S. aureus NCTC-8325 SpsB(P295) [1] | MIC class, S. epidermidis RP62A (S. epidermidis RP62A) | MIC class, S. pneumoniae D39 (S. pneumoniae D39) | MIC class, E. col ATCC 25922 LepB(P84L) [2] | MIC class, S. aurues NCTC-8325 (S. aurues NCTC-8325) | IC50 (E. coli SPase; [4]) [nM] | IC50 (S. aureus SPase; [5]) [nM] |
| --- | --- | --- | --- | --- | --- | --- | --- | --- | --- | --- | --- | --- | --- | --- | --- | --- | --- |
| CCCCCCCCCCCCCCCC(=O)N(C)[C@H](CO)C(=O)N[C@H](C)C(=O)NCC(=O)N(C)[C@@H]1C(=O)N[C@@H](C)C(=O)N[C@H](C(=O)O)Cc2ccc(OC)c(c2)-c2cc1ccc2OC [Compound 77] | > 64 | 16 to 64 (≈ 17.6 to 70.4 µM) | > 64 | 16 to 64 (≈ 17.6 to 70.4 µM) | < 8 | > 64 | > 10000 | 1000 to 10000 |  |  |  |  |  |  |  |  |  |
| CCCCCCCCCCCCCCCC(=O)N(C)[C@H](CO)C(=O)N[C@H](C)C(=O)NCC(=O)N(C)[C@@H]1C(=O)N[C@@H](C)C(=O)N[C@H](C(=O)NCC(O)C(=O)O)Cc2ccc(O)c(c2)-c2cc1ccc2O (stereo partly drawn) [Compound 78] |  | > 64 | > 64 | 16 to 64 (≈ 16.5 to 66.1 µM) | > 64 | > 64 | < 1000 | > 10000 | > 64 |  |  |  |  |  |  |  |  |
| CCCCCCCCCCCCCCCC(=O)N(C)C(CO)C(=O)N[C@H](C)C(=O)NCC(=O)N(C)[C@@H]1C(=O)N[C@@H](C)C(=O)NC(C(=O)NCC(O)C(N)=O)Cc2ccc(O)c(c2)-c2cc1ccc2O (stereo partly drawn) [Compound 82] |  | > 64 | > 64 | 16 to 64 (≈ 16.5 to 66.2 µM) | > 64 | > 64 | 1000 to 10000 | > 10000 | > 64 |  |  |  |  |  |  |  |  |
| CCCCCCCCCCCCCCCC(=O)N(C)[C@H](CO)C(=O)N[C@H](C)C(=O)NCC(=O)N(C)[C@@H]1C(=O)N[C@@H](C)C(=O)N[C@H](C(=O)O)CCCc2ccc(O)c(c2)-c2cc1ccc2O [Compound 83] |  |  |  |  |  |  |  |  |  | a (MIC >64 μg/ml) | b (MIC 16-64 μg/ml) | c (MIC ≤8 μg/ml) | c (MIC ≤8 μg/ml) | c (MIC ≤8 μg/ml) | a (MIC >64 μg/ml) | 1000 to 10000 | < 1000 |
| CCCCCCCCCCCCCCCC(=O)N(C)[C@H](CO)C(=O)N[C@H](C)C(=O)N(C)CC(=O)N(C)[C@@H]1C(=O)N[C@@H](C)C(=O)N[C@H](C(=O)O)Cc2ccc(O)c(c2)-c2cc1ccc2O [Compound 84] |  | > 64 | 16 to 64 (≈ 17.9 to 71.5 µM) | < 8 | > 64 | > 64 | < 1000 | < 1000 | > 64 |  |  |  |  |  |  |  |  |
| CCCCCCCCCCC(=O)N(C)[C@H](CO)C(=O)N[C@H](C)C(=O)NCC(=O)N(C)[C@@H]1C(=O)N[C@@H](C)C(=O)N[C@H](C(=O)O)Cc2ccc(O)c(c2)-c2cc1ccc2O [Compound 85] |  | > 64 | < 8 | > 64 | 16 to 64 (≈ 19.7 to 78.9 µM) | > 64 | < 1000 | 1000 to 10000 | > 64 |  |  |  |  |  |  |  |  |
| CCCCCCCCCCCCC(=O)N(C)[C@H](CO)C(=O)N[C@H](C)C(=O)NCC(=O)N(C)[C@@H]1C(=O)N[C@@H](C)C(=O)N[C@H](C(=O)O)Cc2ccc(O)c(c2)-c2cc1ccc2O [Compound 86] |  | < 8 | 16 to 64 (≈ 19.1 to 76.3 µM) | 16 to 64 (≈ 19.1 to 76.3 µM) | < 8 | > 64 | < 1000 | < 1000 | > 64 |  |  |  |  |  |  |  |  |
| CCCCCCCCCCCCCCCC(=O)N[C@H](CO)C(=O)N[C@H](C)C(=O)N[C@@H](C)C(=O)N(C)[C@@H]1C(=O)N[C@@H](C)C(=O)N[C@H](C(=O)O)Cc2ccc(O)c(c2)-c2cc1ccc2O [Compound 87] |  | > 64 | < 8 | > 64 | > 64 | > 64 | < 1000 | < 1000 | > 64 |  |  |  |  |  |  |  |  |
| CCCCCCCCCCCCCCCC(=O)N(C)[C@H](CO)C(=O)N[C@H](C)C(=O)NCC(=O)N(C)[C@@H]1C(=O)N[C@@H](C)C(=O)N[C@H](C(=O)NCC(O)C(=O)NC)Cc2ccc(O)c(c2)-c2cc1ccc2O (stereo partly drawn) [Compound 90] |  |  |  |  |  |  |  |  |  | a (MIC >64 μg/ml) | a (MIC >64 μg/ml) | c (MIC ≤8 μg/ml) | c (MIC ≤8 μg/ml) | a (MIC >64 μg/ml) | a (MIC >64 μg/ml) | 1000 to 10000 | 1000 to 10000 |
